Where two headings read alike, the source gives them in different places. Starred links: 1 amine or outer side, 2 acyl side, 3 side chain; linkers in the order of their positions; H or OH if unused. Positions of bridges follow the written chain, without caps; N, C: chain ends. Non-standard residues stand in square brackets, D forms with d. Residues, ends and D or L forms follow the SMILES beside them. ξ: configuration not given here. *: point of attachment. Phe(3-(CH2)4CO) = O=C([C@H](Cc1cccc(CCCCC(=O)[*:3])c1)N[*:1])[*:2]; NMePhe(3-Cl) = CN[C@@H](Cc1cccc(Cl)c1)C(=O)O; NMeF = CN[C@@H](Cc1ccccc1)C(=O)O; NMeGABA = CN(CCCC(=O)[*:2])[*:1]; NMeI = CC[C@H](C)[C@H](NC)C(=O)O; NMeβAla = CN(CCC(=O)[*:2])[*:1]; ξThr(3R) = C[C@@H](O)C(N)C(=O)O; NMeL = CN[C@@H](CC(C)C)C(=O)O; NMeV = CN[C@H](C(=O)O)C(C)C; NMeA = CN[C@@H](C)C(=O)O; Piperidide = C1CCN(*)CC1; dNMeA = CN[C@H](C)C(=O)O; Sar = CNCC(=O)O; tBu = CC(C)(C)*
What was measured:
[1] = Metabolic stability in human hepatic microsome; format: in vitro ADME; details: microsomes
[2] = PAMPA (parallel artificial membrane permeability assay); format: in vitro ADME; details: for Papp at 18 hours, 50 µM: PAMPA
In short: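 Artificial membrane was 10% (w/v) egg lecithin plus 0.5% (w/v) cholesterol in dodecane on a PVDF filter. A 10 mM DMSO stock was added at 0.5% (v/v) to donor buffer (50 mM MOPSO, pH 6.5, 5.0% glycocholic acid). After 18 h at 37 °C, LC/MS or LC/UV gave donor and acceptor levels for Pe.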

[3] = pH 7.4, human hepatic microsome, NADPH(+), read-out: CL NADPH(+)
[4] = membrane permeation rate (Pe), 50 mM MOPSO buffer pH 6.5 with 5.0% glycocholic acid, 37° C., 18 hours, read-out: iPAMPA Pe

Row | Compound | microsomal CLint at 1 uM [1, 3] | Papp at 18 hours, 50 µM [2, 4] | microsomal CLint at 1 uM ([1]; human, pH 7.4, CL NADPH(+)) | Papp at 18 hours, 50 µM ([2]; pH 6.5) | iPAMPA Pe ([2]; membrane permeation rate (Pe), 50 mM MOPSO buffer pH 6.5 with 5.0% glycocholic acid, 37° C., 18 hours)
1 | CC[C@H](C)[C@@H]1NC(=O)[C@H](CC(C)C)N(C)C(=O)[C@H](Cc2ccccc2)N(C)C(=O)[C@@H](C(C)C)NC(=O)C[C@@H](C(=O)N2CCCCC2)NC(=O)[C@H](CC(C)C)N(C)C(=O)[C@H](C)N(C)C(=O)[C@H]([C@@H](C)O)NC(=O)[C@H](Cc2ccccc2)N(C)C(=O)[C@H](C)N(C)C1=O [DP-255] ([dV][NMeF][NMeL]I[NMeA][NMeF]T[NMeA][NMeL]D-Piperidide; lactam N-10) | 79 µL/min/mg | 48 ×10⁻⁶ cm/s | – | – | –
2 | CC[C@H](C)[C@H]1C(=O)N[C@@H](C)C(=O)N(C)[C@@H](CC(C)C)C(=O)N[C@@H]([C@@H](C)O)C(=O)N[C@@H](Cc2ccccc2)C(=O)N(C)[C@@H](Cc2ccccc2)C(=O)N(C)[C@@H](CC(C)C)C(=O)N[C@@H](COC(C)(C)C)C(=O)N(C)[C@@H](CC(C)C)C(=O)N(C)[C@@H](C)C(=O)N[C@H](C(=O)N2CCCCC2)CC(=O)N[C@H](C(C)C)C(=O)N1C [DP-219] ([dV][NMeI]A[NMeL]TF[NMeF][NMeL]S(tBu)[NMeL][NMeA]D-Piperidide; lactam N-12) | 49 µL/min/mg | 1.3 ×10⁻⁶ cm/s | – | – | –
3 | CC(C)C[C@H]1C(=O)N(C)[C@@H](C(C)C)C(=O)N[C@@H](C(C)C)C(=O)N(C)CC(=O)N(C)[C@@H](C)C(=O)N[C@@H]([C@@H](C)O)C(=O)N(C)[C@@H](C)C(=O)N[C@H](C(=O)N2CCCCC2)CC(=O)N(C)[C@@H](C)C(=O)N(C)[C@@H](C)C(=O)N(C)[C@@H](Cc2ccccc2)C(=O)N[C@@H](C)C(=O)N1C [DP-410] ([NMeA][NMeA][NMeF]A[NMeL][NMeV]V[Sar][NMeA]T[NMeA]D-Piperidide; lactam N-12) | 19 µL/min/mg | 1.4 ×10⁻⁶ cm/s | – | – | –
4 | CC(C)C[C@@H]1NC(=O)[C@H](CC(C)C)N(C)C(=O)[C@H]([C@@H](C)O)NC(=O)CCCN(C)C(=O)C[C@@H](C(=O)N2CCCCC2)NC(=O)[C@H](COC(C)(C)C)NC(=O)[C@H](Cc2ccccc2)N(C)C1=O [DP-715] ([NMeGABA]T[NMeL]L[NMeF]S(tBu)D-Piperidide; lactam N-7) | 134 µL/min/mg | 24 ×10⁻⁶ cm/s | – | – | –
5 | CC[C@H](C)[C@@H]1NC(=O)[C@@H]2CCCN2C(=O)[C@H](Cc2ccccc2)NC(=O)[C@H](Cc2ccccc2)NC(=O)[C@H](CC(C)C)NC(=O)[C@H](C(C)C)N(C)C(=O)[C@H](CC(C)C)NC(=O)[C@H](C)NC(=O)[C@H](C)NC(=O)C[C@@H](C(=O)N2CCCCC2)NC(=O)CNC(=O)C([C@@H](C)O)NC1=O (stereo partly drawn) [DP-3] (AAL[NMeV]LFFPI[ξThr(3R)]GD-Piperidide; lactam N-12) | – | – | 45 µL/min/mg | 0.56 ×10⁻⁶ cm/s | –
6 | CC(C)C[C@H]1C(=O)N[C@@H](COC(C)(C)C)C(=O)N(C)[C@@H](Cc2ccccc2)C(=O)N(C)[C@@H](C)C(=O)N[C@@H](Cc2ccccc2)C(=O)N(C)[C@@H](C(C)C)C(=O)N[C@H](C(=O)N2CCCCC2)CC(=O)N(C)[C@H](C)C(=O)N[C@@H]([C@@H](C)O)C(=O)NCC(=O)N1C [DP-340] ([dNMeA]TG[NMeL]S(tBu)[NMeF][NMeA]F[NMeV]D-Piperidide; lactam N-10) | 86 µL/min/mg | 31 ×10⁻⁶ cm/s | – | – | –
7 | CC[C@H](C)[C@@H]1NC(=O)[C@H](CC(C)C)N(C)C(=O)[C@H](C(C)C)NC(=O)[C@H](CC(C)C)NC(=O)[C@H](CC(C)C)NC(=O)[C@H]([C@@H](C)O)NC(=O)[C@H](Cc2ccccc2)NC(=O)[C@H](CC(C)C)NC(=O)[C@H](C(C)C)N(C)C(=O)CCN(C)C(=O)C[C@@H](C(=O)N2CCCCC2)NC1=O [DP-412] ([NMeβAla][NMeV]LFTLLV[NMeL]ID-Piperidide; lactam N-11) | 122 µL/min/mg | 26 ×10⁻⁶ cm/s | – | – | –
8 | CC[C@H](C)[C@@H]1NC(=O)[C@H](CC(C)C)N(C)C(=O)[C@H](Cc2ccccc2)N(C)C(=O)CCCCc2cccc(c2)C[C@@H](C(=O)N2CCCCC2)NC(=O)[C@H](CC(C)C)N(C)C(=O)[C@H](C)N(C)C(=O)[C@H]([C@@H](C)O)NC(=O)[C@H](Cc2ccccc2)N(C)C(=O)[C@H](C)N(C)C1=O [DP-836] ([NMeF][NMeL]I[NMeA][NMeF]T[NMeA][NMeL][Phe(3-(CH2)4CO)]-Piperidide; lactam N-9) | 552 µL/min/mg | 18 ×10⁻⁶ cm/s | – | – | –
9 | CC(C)C[C@H]1C(=O)N(C)[C@@H](Cc2ccccc2)C(=O)NCC(=O)N[C@H](C(=O)N2CCCCC2)CC(=O)N(C)CCC(=O)N[C@@H]([C@@H](C)O)C(=O)N(C)[C@@H](C)C(=O)N[C@@H](COC(C)(C)C)C(=O)N(C)[C@@H](Cc2ccccc2)C(=O)N1C [DP-80] ([NMeβAla]T[NMeA]S(tBu)[NMeF][NMeL][NMeF]GD-Piperidide; lactam N-9) | – | – | 43 µL/min/mg | 12 ×10⁻⁶ cm/s | –
10 | CC[C@H](C)[C@H](NC(=O)[C@H](Cc1ccccc1)N(C)C(=O)[C@@H]1CC(=O)N[C@@H](C)C(=O)N[C@@H](CC(C)C)C(=O)N(C)[C@@H]([C@@H](C)CC)C(=O)N[C@@H](C(C)C)C(=O)N(C)[C@@H](Cc2ccccc2)C(=O)N[C@@H](CC(C)C)C(=O)N(C)[C@@H](Cc2ccccc2)C(=O)N1)C(=O)N1CCCCC1 [DP-573] (AL[NMeI]V[NMeF]L[NMeF]D[NMeF]I-Piperidide; lactam N-8) | 72 µL/min/mg | – | – | – | 1.0E−07
11 | CC[C@H](C)[C@@H]1NC(=O)[C@H](CC(C)C)N(C)C(=O)CN(C)C(=O)[C@H](Cc2ccccc2)NC(=O)[C@H](C(C)C)N(C)C(=O)[C@H](C)N(C)C(=O)[C@H]([C@@H](C)O)NC(=O)[C@H](C)N(C)C(=O)C[C@@H](C(=O)N(C)[C@@H](CC(C)C)C(=O)N[C@H](C(=O)N(C)[C@@H](CC(C)C)C(=O)N[C@@H](C)C(=O)N2CCCCC2)[C@@H](C)O)NC(=O)[C@H](C)NC1=O [DP-581] ([NMeA]T[NMeA][NMeV]F[Sar][NMeL]IAD[NMeL]T[NMeL]A-Piperidide; lactam N-10) | 7 µL/min/mg | 2.7 ×10⁻⁶ cm/s | – | – | –
12 | CC[C@H](C)[C@@H]1NC(=O)[C@H](Cc2ccccc2)N(C)C(=O)[C@H](C)N(C)C(=O)[C@H]([C@@H](C)O)NC(=O)[C@H](CC(C)C)N(C)C(=O)[C@H](C)N(C)C(=O)C[C@@H](C(=O)N(C)[C@@H](Cc2ccccc2)C(=O)N[C@@H](C)C(=O)N2CCCCC2)NC(=O)[C@H](C(C)C)N(C)C(=O)[C@H](CC(C)C)N(C)C(=O)CN(C)C1=O [DP-492] ([NMeA][NMeL]T[NMeA][NMeF]I[Sar][NMeL][NMeV]D[NMeF]A-Piperidide; lactam N-10) | 61 µL/min/mg | 20 ×10⁻⁶ cm/s | – | – | –
13 | CC(C)C[C@@H]1NC(=O)[C@H](CC(C)C)N(C)C(=O)[C@H](COC(C)(C)C)NC(=O)[C@H](Cc2ccccc2)N(C)C(=O)[C@H](C)N(C)C(=O)C[C@@H](C(=O)N2CCCCC2)NC(=O)[C@H](CC(C)C)N(C)C(=O)[C@H]([C@@H](C)O)NC1=O [DP-698] ([NMeA][NMeF]S(tBu)[NMeL]LT[NMeL]D-Piperidide; lactam N-8) | 142 µL/min/mg | 31 ×10⁻⁶ cm/s | – | – | –
14 | CC(C)C[C@H]1C(=O)N(C)[C@@H](C)C(=O)N[C@@H]([C@@H](C)O)C(=O)N(C)[C@@H](C)C(=O)N[C@H](C(=O)N(C)[C@@H](Cc2ccccc2)C(=O)N(C)[C@@H](Cc2ccccc2)C(=O)N[C@@H](C)C(=O)N2CCCCC2)CC(=O)N(C)CCC(=O)N(C)[C@@H](Cc2ccccc2)C(=O)N(C)[C@@H](CC(C)C)C(=O)N(C)[C@@H](C)C(=O)N[C@@H](C(C)C)C(=O)N1C [DP-500] ([NMeβAla][NMeF][NMeL][NMeA]V[NMeL][NMeA]T[NMeA]D[NMeF][NMeF]A-Piperidide; lactam N-10) | 28 µL/min/mg | 27 ×10⁻⁶ cm/s | – | – | –
15 | CC[C@H](C)[C@@H]1NC(=O)[C@H](C)N(C)C(=O)[C@H](Cc2ccccc2)N(C)C(=O)[C@H](C)N(C)C(=O)C[C@@H](C(=O)N(C)[C@@H](Cc2ccccc2)C(=O)N(C)[C@@H](Cc2ccccc2)C(=O)N[C@@H](C)C(=O)N2CCCCC2)NC(=O)[C@H](C)N(C)C(=O)[C@H](CC(C)C)N(C)C(=O)[C@H](C)N(C)C(=O)[C@H]([C@@H](C)O)NC(=O)[C@H](C)N(C)C1=O [DP-395] ([NMeA][NMeF][NMeA]I[NMeA]T[NMeA][NMeL][NMeA]D[NMeF][NMeF]A-Piperidide; lactam N-10) | 23 µL/min/mg | 19 ×10⁻⁶ cm/s | – | – | –
16 | CC(C)C[C@@H]1NC(=O)[C@H](Cc2ccccc2)N(C)C(=O)CN(C)C(=O)[C@H]([C@@H](C)O)NC(=O)[C@H](CC(C)C)N(C)C(=O)[C@H](C)NC(=O)C[C@@H](C(=O)N(C)[C@@H](Cc2ccccc2)C(=O)N(C)[C@@H](C)C(=O)N2CCC[C@H]2C(=O)N(C)[C@@H](Cc2ccccc2)C(=O)N[C@@H](C)C(=O)N2CCCCC2)NC1=O [DP-565] (A[NMeL]T[Sar][NMeF]LD[NMeF][NMeA]P[NMeF]A-Piperidide; lactam N-7) | 56 µL/min/mg | 18 ×10⁻⁶ cm/s | – | – | –
17 | CC[C@H](C)[C@H](NC(=O)[C@H](Cc1cccc(Cl)c1)N(C)C(=O)[C@H](CC(C)C)NC(=O)[C@H](C)N(C)C(=O)[C@H](CC(C)C)N(C)C(=O)[C@@H]1CC(=O)N[C@@H](Cc2ccccc2)C(=O)N(C)[C@@H](Cc2ccccc2)C(=O)N2CCC[C@H]2C(=O)N[C@@H](CC(C)C)C(=O)N(C)[C@@H](Cc2cccc(Cl)c2)C(=O)N[C@@H]([C@@H](C)O)C(=O)N[C@@H](CC(C)C)C(=O)N1)C(=O)N1CCCCC1 [DP-923] (F[NMeF]PL[NMePhe(3-Cl)]TLD[NMeL][NMeA]L[NMePhe(3-Cl)]I-Piperidide; lactam N-8) | – | – | 8 µL/min/mg | 0.1 ×10⁻⁶ cm/s | –
